The text below walks through data of patent US5981574A, “Phenanthrofuran derivatives” (Phytera, Inc., priority 1998, dated 1999).

One may read the inhibition as the relative decrease from the control value, in per cent.

The subject of the assay is Human umbilical-vein endothelial cells (HUVEC). Put plainly: Anti-angiogenic activity in Tube Formation Assay (collagen tube, 1st Assay and 2nd Assay). The class given is cell-based. As to conditions: for inhibition at 10 µg/mL / inhibition at 30 µg/mL / inhibition at 1 µM / inhibition at 10 µM / inhibition at 1 µg/mL: Homo sapiens, HUVEC; for inhibition at 10 µg/mL: 10 μg/ml; for inhibition at 30 µg/mL: 30 μg/ml; for inhibition at 1 µM / inhibition at 10 µM: positive control. On the procedure:
Anti-angiogenic activity: collagen tube
Human umbilical-vein endothelial cells (HUVEC; Kurabo Industries, Ltd., Osaka, Japan) were cultured with M-199 medium (Gibco, Gaithersburg, Md.) with […], bFGF (15 ng/mL; PeproTech EC, Ltd., Princeton, N.J.) and epidermal growth factor (EGF) (15 ng/mL; Upstate Biotechnology Inc., Lake Placid, N.Y.) until they become confluent. All experiments were performed using cells that were passaged at least five times. Eight volumes of type-I collagen solution (Nitta Gelatin Inc., Osaka, Japan)were mixed with one volume of 10X M-199 medium and one volume of reconstruction buffer (0.5 N NaOH, 200 mM HEPES and 260 mM NaHCO3).
Collagen gel (300 μL/well) was placed in 24-well culture plates (NUNC) and incubated for 1.5 hours. HUVEC (1.4×10^5 /0.5 mL) were seeded in the collagen-coated plates and cultured for 2 hours at 37° C. Fifty microliters of sample were added. The collagen gel was replaced (300 μL/well), and the mixture was cultured for 1.5 hours. Three hundred fifty microliters of M-199 medium with […], 30 ng/mL basic fibroblast growth factor (bFGF) were added, and the mixture was cultured for 20 hours. One field per well was photographed with a phase-contrast microscope, and the length of the tube structures were measured on a Macintosh computer using the public domain NIH Image program (see Table 1 for results). Erbstatin was used as a positive control for inhibition of angiogenesis.

Where [1] appears, read: 1st Assay, 1 μg/ml, n.e.: no effect, over 100% = more inhibition than in control cultures without bFGF.
Where [2] appears, read: 1st Assay, over 100% = more inhibition than in control cultures without bFGF.
The mark [3] stands for this setting: 2nd Assay, over 100% = more inhibition than in control cultures without bFGF.

Turning to `CC1=C(C)C2=CC(=O)c3c(c(O)c4occ(C)c4c3O)C2(C)CC1` (stereo not drawn) [Ajuforrestine A fraction, 1,11b-dihydro-7,11-dihydroxy-3,4,8,11b-tetramethyl-phenanthro[3,2-b]furan-6(2H)-one], the “% of inhibition (tube formation)” value under setting [1] is given as “n.e”. Besides, the inhibition at 10 µg/mL reads like this: under setting [2], 99.6%; under setting [3], 98%. The inhibition at 30 µg/mL reads like this: under setting [2], 102%; under setting [3], 109%.
As for `O=CN/C=C/c1cc(O)ccc1O` [Erbstatin, reference compound], for the setting “1st Assay”, the inhibition at 1 µM was determined as 7.6% and the inhibition at 10 µM was 118%. For the same compound, for the setting “2nd Assay”, the inhibition at 1 µM worked out at 6.7% and the inhibition at 10 µM was 108%.
On to `CC1=C(C)C2=CC(=O)c3c(c(O)c4oc(C)cc4c3O)C2(C)CC1` (stereo not drawn) [Formula I-A fraction], for which the inhibition at 1 µg/mL reads like this: under setting [1], 115%; (2nd Assay, 1 μg/ml, over 100% = more inhibition than in control cultures without bFGF) 108%. Also, the inhibition at 10 µg/mL turned out to be 119% under setting [2] and 108% under setting [3]. For the same compound, the inhibition at 30 µg/mL runs as follows: under setting [2], 119%; under setting [3], 107%.
